Measured values as given in the NIST ThermoML archive (doi:10.1021/je060271a).
Several values for one entry are separate records, joined by “and”; a condition that tells them apart may be missing. Identical values can stand only once.

Conditions: 323.15 K, Liquid, Vibrating tube method

CCCCCCCC(=O)OCC(COC(=O)CCCCCCC)(COC(=O)CCCCCCC)COC(=O)CCCCCCC [pentaerythritol tetraoctanoate]
Conditions | mass density
3786.1 kPa | 943.3 kg/m3
3800.8 kPa | 943.3 kg/m3
3818.1 kPa | 943.3 kg/m3
3832.3 kPa | 943.3 kg/m3
3846.9 kPa | 943.3 kg/m3
3894.9 kPa | 943.3 kg/m3
4078 kPa | 943.4 kg/m3
4095.3 kPa | 943.5 kg/m3
4116.3 kPa | 943.5 kg/m3
4133.4 kPa | 943.5 kg/m3
4151.5 kPa | 943.4 kg/m3
4169.5 kPa | 943.5 kg/m3
4190.6 kPa | 943.5 kg/m3
4208.3 kPa | 943.5 kg/m3
4239.4 kPa | 943.7 kg/m3
4240.5 kPa | 943.6 kg/m3
4244.3 kPa | 943.6 kg/m3
4247.1 kPa | 943.6 kg/m3
4247.4 kPa | 943.5 kg/m3
4247.6 kPa | 943.5 kg/m3
4248.6 kPa | 943.5 kg/m3
4249.3 kPa | 943.5 kg/m3 and 943.6 kg/m3
4250.7 kPa | 943.7 kg/m3
4258.1 kPa | 943.6 kg/m3
4267.5 kPa | 943.7 kg/m3
4277.9 kPa | 943.5 kg/m3
4287.4 kPa | 943.5 kg/m3
4298 kPa | 943.6 kg/m3
4315.8 kPa | 943.6 kg/m3
4334.7 kPa | 943.5 kg/m3
4353.7 kPa | 943.6 kg/m3
4376.6 kPa | 943.5 kg/m3
4396.7 kPa | 943.6 kg/m3
4416.4 kPa | 943.8 kg/m3
4436.5 kPa | 943.7 kg/m3
4522.7 kPa | 943.7 kg/m3
4548.7 kPa | 943.7 kg/m3
4571 kPa | 943.8 kg/m3
4604.4 kPa | 943.8 kg/m3
4618.8 kPa | 943.7 kg/m3
4647.7 kPa | 943.8 kg/m3
4665.2 kPa | 943.8 kg/m3
4679.7 kPa | 943.8 kg/m3
4709.7 kPa | 943.8 kg/m3
4727.3 kPa | 943.9 kg/m3
4891.1 kPa | 943.9 kg/m3
4907.3 kPa | 944 kg/m3
4923.3 kPa | 944 kg/m3
4942.8 kPa | 944.1 kg/m3
4959.8 kPa | 943.9 kg/m3
4976.6 kPa | 944 kg/m3
4996.1 kPa | 944 kg/m3
5013.6 kPa | 944 kg/m3
5030.7 kPa | 944 kg/m3
5047.7 kPa | 944.1 kg/m3
5068.6 kPa | 944.1 kg/m3
5086.9 kPa | 944.1 kg/m3
5104.6 kPa | 944.2 kg/m3
5218.8 kPa | 944.1 kg/m3
5237.3 kPa | 944.2 kg/m3
5255.9 kPa | 944.1 kg/m3
5277.4 kPa | 944 kg/m3
5296.3 kPa | 944.3 kg/m3
5316.3 kPa | 944.2 kg/m3
5355 kPa | 944.3 kg/m3
5378.7 kPa | 944.3 kg/m3
5681.4 kPa | 944.5 kg/m3
5729.8 kPa | 944.6 kg/m3
5752.1 kPa | 944.5 kg/m3
5847.4 kPa | 944.5 kg/m3
5898.9 kPa | 944.7 kg/m3
5922.8 kPa | 944.6 kg/m3
5946.5 kPa | 944.7 kg/m3
5970.5 kPa | 944.6 kg/m3
5999.4 kPa | 944.7 kg/m3
6024.1 kPa | 944.7 kg/m3
6049 kPa | 944.6 kg/m3
6104.5 kPa | 944.9 kg/m3
6129.2 kPa | 944.8 kg/m3
6154.4 kPa | 944.8 kg/m3
6185.7 kPa | 944.9 kg/m3
6211.6 kPa | 944.7 kg/m3
6413.9 kPa | 945 kg/m3
6442.7 kPa | 945.1 kg/m3
6473 kPa | 945 kg/m3
6509.3 kPa | 944.9 kg/m3
6534.3 kPa | 945 kg/m3
6561.1 kPa | 945 kg/m3
6584.4 kPa | 945 kg/m3
6606.7 kPa | 945 kg/m3
6623 kPa | 945.2 kg/m3
6640.9 kPa | 945.1 kg/m3
6655.8 kPa | 945.2 kg/m3
6670.8 kPa | 945.1 kg/m3
6686 kPa | 945.1 kg/m3
6704.2 kPa | 945 kg/m3
6719.4 kPa | 945.2 kg/m3
6735.1 kPa | 945.2 kg/m3
6749.8 kPa | 945.1 kg/m3
6768.8 kPa | 945.2 kg/m3
6784.3 kPa | 945.2 kg/m3
6800.4 kPa | 945.2 kg/m3
6817 kPa | 945.2 kg/m3
6835.8 kPa | 945.3 kg/m3
6851.9 kPa | 945.3 kg/m3
6867.4 kPa | 945.1 kg/m3
6883.1 kPa | 945.3 kg/m3
6902.5 kPa | 945.3 kg/m3
6918.5 kPa | 945.3 kg/m3
6935.1 kPa | 945.2 kg/m3
6954.5 kPa | 945.3 kg/m3
6971.2 kPa | 945.4 kg/m3
6987.8 kPa | 945.3 kg/m3
7004.7 kPa | 945.4 kg/m3
7025.5 kPa | 945.3 kg/m3
7043.2 kPa | 945.5 kg/m3
7059.8 kPa | 945.4 kg/m3
7076.5 kPa | 945.4 kg/m3
7096.9 kPa | 945.4 kg/m3
7113.8 kPa | 945.4 kg/m3
7131.3 kPa | 945.5 kg/m3
7148.4 kPa | 945.5 kg/m3
7169.6 kPa | 945.5 kg/m3
7187.1 kPa | 945.5 kg/m3
7204 kPa | 945.6 kg/m3
7225.1 kPa | 945.5 kg/m3
7243.2 kPa | 945.4 kg/m3
7262.9 kPa | 945.5 kg/m3
7281.3 kPa | 945.5 kg/m3
7299.6 kPa | 945.5 kg/m3
7320.9 kPa | 945.6 kg/m3
7338.5 kPa | 945.7 kg/m3
7357.3 kPa | 945.6 kg/m3
7379.6 kPa | 945.5 kg/m3
7397.7 kPa | 945.7 kg/m3
7416.4 kPa | 945.6 kg/m3
7435.3 kPa | 945.6 kg/m3
7457.8 kPa | 945.7 kg/m3
7476.9 kPa | 945.7 kg/m3
7496.1 kPa | 945.6 kg/m3
7515.6 kPa | 945.7 kg/m3
7538.6 kPa | 945.7 kg/m3
7558.1 kPa | 945.7 kg/m3
7577.6 kPa | 945.6 kg/m3
7601.3 kPa | 945.7 kg/m3
7621.1 kPa | 945.8 kg/m3
7640.6 kPa | 945.7 kg/m3
7660.5 kPa | 945.8 kg/m3
